Source: US7915293B2, “Ubiquitin ligase inhibitors” (Rigel Pharmaceuticals, Inc., priority 2003, dated 2011)

Experiments:
Design in all cases: key: “+” indicates that the compound exibits inhibitory activity; “−” indicates that low or no inhibitory activity was observed
[1] = biological target: E3 (His-APC11/APC2-"APC") (Homo sapiens, UniProt Q9NYG5+Q9UJX6); assay: Plate-based E3 ligase assay (APC FLAG), auto-ubiquitination; type: biochemical; details: for APC Flag 8 pt: 8 concentrations tested
Summary of the method: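 His-APC11/APC2 auto-ubiquitination was run in casein-blocked nickel plates for 1 h at room temperature, with E1 at 5 ng/well, UbcH5c at 20 ng/well and APC at 100 ng/well. Buffer was 62.5 mM Tris pH 7.6, 3 mM MgCl2, 1 mM DTT, 2.5 mM ATP and Flag-ubiquitin at 100 ng/well. Detection used anti-Flag/HRP chemiluminescence, and IC50 was typically from 6 or 8 concentrations versus a DMSO control.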

A549 cells = assay: Cell proliferation assay, photographic image analysis of proliferation, apoptosis and death (PAD assay), A549; type: cell-based; details: 6 concentrations tested
Method: (§1) A549 (ATCC# CCL-185), HeLa (ATCC# CCL-2), HCT116 (ATCC# CCL-247), and H1299 (ATCC# CRL-5803) cells were maintained in T175 flasks following the ATCC recommended media and handling procedures. Flasks reaching approximately 70% confluency were trypsinized and resuspended in RPMI media (Cell-Gro catalog number 10-040-CM) modified to contain 5% FBS, 100 ug/mlPen/Strep (Cell-Gro catalog number 30-002-CL), and 0.3 mg/ml L-Glutamine (Cell-Gro catalog number 25-003-CL). A 20,000 cells/ml solution was made for plating. Cells were plated in black Packard 96 well plates by placing 100 μl per well (2,000 cells per well).
(§2) Compounds and additional media were added 24 hours after cell plating. A compound master plate was created with concentrations 500 times greater than the final concentration added to the cells. All compound testing was done in duplicate using 6.3 fold dilutions starting with 10 mM. All outside wells (and 4 internal wells) were DMSO controls. Taxol and at least one additional control were run on all plates. Three microliters of the compound master plate were added to deep well blocks containing 750 μl of RPMI media. One hundred microliters were transferred from the compound/media deep well blocks to the plated cells resulting in a 500 fold dilution of the compounds. Cells were grown at 37° C., 5% CO2 for 48 hours.
(§3) Cells to be analyzed by photography were fixed and stained. One hundred microliters of media were removed and 100 μl of 9.3% […] was added to each well. Plates were left on the benchtop for 45 minutes. A staining solution containing 1.55 μl of 1 mg/ml DAPI added to 18.75 ml PBS was warmed for 15 minutes at 37° C. The cells were aspirated prior to washing with 100 μl of PBS. Seventy microliters of PBS were aspirated and 170 μl of the DAPI solution were added to each well of fixed cells. Plates were left at room temperature for one hour then aspirated and washed twice with 100 μl of PBS. The stained cells were left at 4° C. for a minimum of 16 hours before photographic analysis with Array Scan II (Cellomics). Analysis of the photographic images to determine numbers of live cells (proliferation), apoptotic cells and dead cells, were according to the methods described in U.S. Provisional Patent Application Ser. No. 60/406,714, which incorporated herein in its entirety.

HeLa cells = assay: Cell proliferation assay, photographic image analysis of proliferation, apoptosis and death (PAD assay), HeLa; type: cell-based; details: 6 concentrations tested
Method: as §1, §2, §3

Sequence of E3 (His-APC11/APC2-"APC") (Q9NYG5 whole entry): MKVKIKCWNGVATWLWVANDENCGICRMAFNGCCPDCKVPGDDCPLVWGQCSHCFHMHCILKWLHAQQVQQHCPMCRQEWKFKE
Sequence of E3 (His-APC11/APC2-"APC") (Q9UJX6 whole entry): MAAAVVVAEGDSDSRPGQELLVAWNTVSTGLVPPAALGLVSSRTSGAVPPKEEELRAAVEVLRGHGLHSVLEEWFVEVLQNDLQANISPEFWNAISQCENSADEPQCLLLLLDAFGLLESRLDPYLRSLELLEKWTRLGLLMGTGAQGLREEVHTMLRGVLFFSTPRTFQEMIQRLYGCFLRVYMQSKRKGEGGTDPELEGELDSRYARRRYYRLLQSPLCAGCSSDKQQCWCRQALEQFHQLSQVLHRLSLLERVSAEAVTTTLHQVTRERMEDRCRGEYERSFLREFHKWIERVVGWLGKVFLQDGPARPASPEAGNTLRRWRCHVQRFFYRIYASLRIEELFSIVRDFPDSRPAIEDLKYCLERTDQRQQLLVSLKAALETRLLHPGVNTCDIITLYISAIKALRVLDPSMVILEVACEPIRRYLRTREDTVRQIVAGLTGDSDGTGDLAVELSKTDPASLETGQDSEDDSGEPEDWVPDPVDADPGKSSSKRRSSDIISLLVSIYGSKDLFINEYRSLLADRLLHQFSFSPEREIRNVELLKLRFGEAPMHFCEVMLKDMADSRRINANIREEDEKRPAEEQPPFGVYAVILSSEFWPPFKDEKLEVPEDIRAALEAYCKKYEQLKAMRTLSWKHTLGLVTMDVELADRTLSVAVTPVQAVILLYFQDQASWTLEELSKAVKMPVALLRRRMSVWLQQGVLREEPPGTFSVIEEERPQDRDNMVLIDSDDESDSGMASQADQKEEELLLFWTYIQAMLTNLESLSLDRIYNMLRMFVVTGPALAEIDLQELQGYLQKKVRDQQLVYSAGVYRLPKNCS

| Structure (SMILES) | APC Flag 8 pt [1] | APC Flag (2 pt) ([1]; 2 concentrations tested) | PAD Assay, A549 6 pt (A549 cells) | PAD Assay, HELA 6 pt (HeLa cells) |
| --- | --- | --- | --- | --- |
| O=[N+]([O-])c1ccc(Oc2ccc(S(=O)(=O)Nc3ccc(C(F)(F)F)cc3Cl)cc2Cl)c(C(F)(F)F)c1 [Compound 265, 3-chloro-N-[2-chloro-4-(trifluoromethyl)phenyl]-4-[4-nitro-2-(trifluoromethyl)phenoxy]benzenesulfonamide] | + |  | + | + |
| O=[N+]([O-])c1ccc(Oc2ccc(S(=O)(=O)Nc3cc(Cl)ccc3C(F)(F)F)cc2Cl)c(C(F)(F)F)c1 [Compound 267, 3-chloro-N-[5-chloro-2-(trifluoromethyl)phenyl]-4-[4-nitro-2-(trifluoromethyl)phenoxy]benzenesulfonamide] | + |  | + | + |
| O=[N+]([O-])c1ccc(Oc2c(Cl)cc(S(=O)(=O)Nc3cccc4c3OC(F)(F)C(F)(F)O4)cc2Cl)c(Cl)c1 [Example 192, 3,5-dichloro-4-(2-chloro-4-nitrophenoxy)-N-(2,2,3,3-tetrafluoro-2,3-dihydro-1,4-benzodioxin-5-yl)benzenesulfonamide] | + |  | − | − |
| O=[N+]([O-])c1ccc(Oc2c(Cl)cc(S(=O)(=O)Nc3cc(F)c(F)cc3F)cc2Cl)c(Cl)c1 [Example 199, 3,5-dichloro-4-(2-chloro-4-nitrophenoxy)-N-(2,4,5-trifluorophenyl)benzenesulfonamide] | + |  | + | + |
| Cc1cc(NS(=O)(=O)c2cc(Cl)c(Oc3ccc([N+](=O)[O-])cc3Cl)c(Cl)c2)no1 [Example 217, 3,5-dichloro-4-(2-chloro-4-nitrophenoxy)-N-(5-methylisoxazol-3-yl)benzenesulfonamide] |  | − (2 pt) | − | − |
| Cc1ccc(C(F)(F)F)cc1NS(=O)(=O)c1cc(Cl)c(Oc2ccc([N+](=O)[O-])cc2Cl)c(Cl)c1 [Example 229, 3,5-dichloro-4-(2-chloro-4-nitrophenoxy)-N-[2-methyl-5-(trifluoromethyl)phenyl] benzenesulfonamide] | + |  | + | + |
| CC(C)(C)c1cccc(C(C)(C)C)c1NS(=O)(=O)c1cc(Cl)c(Oc2ccc([N+](=O)[O-])cc2Cl)c(Cl)c1 [Example 231, 3,5-dichloro-4-(2-chloro-4-nitrophenoxy)-N-(2,6-di-tert-butylphenyl)benzenesulfonamide] | + |  | + | + |
| Cc1c(F)cccc1NS(=O)(=O)c1cc(Cl)c(Oc2ccc([N+](=O)[O-])cc2Cl)c(Cl)c1 [Example 234, 3,5-dichloro-4-(2-chloro-4-nitrophenoxy)-N-(3-fluoro-2-methylphenyl)benzene-sulfonamide] | + |  | + | + |
| Cc1cc(F)ccc1NS(=O)(=O)c1cc(Cl)c(Oc2ccc([N+](=O)[O-])cc2Cl)c(Cl)c1 [Example 236, 3,5-dichloro-4-(2-chloro-4-nitrophenoxy)-N-(4-fluoro-2-methylphenyl)benzene-sulfonamide] | + |  | + | + |
| O=[N+]([O-])c1ccc(Oc2c(Cl)cc(S(=O)(=O)Nc3c(F)cccc3F)cc2Cl)c(Cl)c1 [Example 238, 3,5-dichloro-4-(2-chloro-4-nitrophenoxy)-N-(2,6-difluorophenyl)benzenesulfonamide] | + |  | + | + |
| O=[N+]([O-])c1ccc(Oc2c(Cl)cc(S(=O)(=O)Nc3c(F)cc(F)cc3F)cc2Cl)c(Cl)c1 [Example 241, 3,5-dichloro-4-(2-chloro-4-nitrophenoxy)-N-(2,4,6-trifluorophenyl)benzenesulfonamide] | + |  | + | + |
| CC(C)(C)c1cc2cc(NS(=O)(=O)c3cc(Cl)c(Oc4ccc([N+](=O)[O-])cc4Cl)c(Cl)c3)ccc2[nH]1 [Example 245, N-(2-tert-butyl-1H-indol-5-yl)-3,5-dichloro-4-(2-chloro-4-nitrophenoxy)benzene-sulfonamide] | + |  | + | + |
| Cc1ccc(Cl)cc1NS(=O)(=O)c1cc(Cl)c(Oc2ccc([N+](=O)[O-])cc2Cl)c(Cl)c1 [Example 252, 3,5-dichloro-N-(5-chloro-2-methylphenyl)-4-(2-chloro-4-nitrophenoxy)benzene-sulfonamide] | + |  | + | + |

Continued, in another order:

| APC Flag 8 pt [1] | APC Flag (2 pt) ([1]; 2 concentrations tested) | Structure (SMILES) | PAD Assay, A549 6 pt (A549 cells) | PAD Assay, HELA 6 pt (HeLa cells) |
| --- | --- | --- | --- | --- |
| + |  | O=S(=O)(Nc1cc(Cl)ccc1C(F)(F)F)c1ccc(Oc2ncc(C(F)(F)F)cc2Cl)cc1 [Compound 272, N-[5-chloro-2-(trifluoromethyl)phenyl]-4-{[3-chloro-5-(trifluoromethyl)pyridin-2-yl]oxy}benzenesulfonamide] | + | + |
| + |  | O=[N+]([O-])c1ccc(Oc2ccc(NS(=O)(=O)c3cc(Cl)ccc3Cl)cc2)cc1 [Compound 273, 2,5-dichloro-N-[4-(4-nitrophenoxy)phenyl]benzenesulfonamide] | + | − |
| + |  | O=S(=O)(Nc1ccc(Oc2ccc(F)cc2)c(Br)c1)c1cccc(Cl)c1 [Compound 282, N-[3-bromo-4-(4-fluorophenoxy)phenyl]-3-chlorobenzenesulfonamide] | + | − |
| + |  | COc1ccc(S(=O)(=O)Nc2ccc(Oc3cc(C(F)(F)F)ccc3Cl)cc2F)cc1 [Compound 287, N-{4-[2-chloro-5-(trifluoromethyl)phenoxy]-2-fluorophenyl}-4-methoxybenzenesulfonamide] | + | + |
| − |  | O=C(Nc1ccc(Oc2ccc(F)cc2)c(Br)c1)c1cccc(Cl)c1 [Compound 303] | + | + |
| + |  | O=C(Nc1cccc(Cl)c1)Nc1ccc(Oc2ccc(F)cc2)c(Br)c1 [Compound 304] | + | + |
| − |  | O=[N+]([O-])c1ccc(Oc2c(Cl)cc(S(=O)(=O)Nc3ccc4cn[nH]c4c3)cc2Cl)c(Cl)c1 [Example 171, 3,5-dichloro-4-(2-chloro-4-nitrophenoxy)-N-1H-indazol-6-ylbenzenesulfonamide] | + | − |
| + |  | O=[N+]([O-])c1ccc(Oc2c(Cl)cc(S(=O)(=O)Nc3cccc(F)c3)cc2Cl)c(Cl)c1 [Example 232, 3,5-dichloro-4-(2-chloro-4-nitrophenoxy)-N-(3-fluorophenyl)benzenesulfonamide] | + | + |
| + |  | O=[N+]([O-])c1ccc(Oc2c(Cl)cc(S(=O)(=O)Nc3cc(F)ccc3F)cc2Cl)c(Cl)c1 [Example 237, 3,5-dichloro-4-(2-chloro-4-nitrophenoxy)-N-(2,5-difluorophenyl)benzenesulfonamide] | + | + |
| + |  | O=S(=O)(Nc1cccc2cnccc12)c1cc(Cl)c(Oc2ccc(Cl)cc2Cl)c(Cl)c1 [Example 246, 3,5-dichloro-4-(2,4-dichlorophenoxy)-N-isoquinolin-5-ylbenzenesulfonamide] | + | + |
| + |  | Cc1ccc(NS(=O)(=O)c2cc(Cl)c(Oc3ccc([N+](=O)[O-])cc3Cl)c(Cl)c2)cc1I [Example 250, 3,5-dichloro-4-(2-chloro-4-nitrophenoxy)-N-(3-iodo-4-methylphenyl)benzenesulfonamide] | + | + |
